Measured values taken from the NIST ThermoML archive (doi:10.1016/j.jct.2004.08.003).
± gives the expanded uncertainty stated by the source.

Experiment: relative permittivity at various frequencies (dimensionless); xn = mol fraction of the nth substance listed
Conditions: 101.3 kPa, Liquid, HP4284A LCR Meter with HP16452A measuring cell

COCCOCCOCCOC [2,5,8,11-tetraoxadodecane] + CCCCCCCCC
Conditions | relative permittivity
288.15 K, x1 = 0.0979 | 2.32 ± 0.05
288.15 K, x1 = 0.1997 | 2.72 ± 0.05
288.15 K, x1 = 0.2461 | 2.91 ± 0.06
288.15 K, x1 = 0.2965 | 3.15 ± 0.06
288.15 K, x1 = 0.3969 | 3.65 ± 0.07
288.15 K, x1 = 0.5043 | 4.24 ± 0.08
288.15 K, x1 = 0.6013 | 4.83 ± 0.1
288.15 K, x1 = 0.6972 | 5.48 ± 0.11
288.15 K, x1 = 0.7975 | 6.22 ± 0.12
288.15 K, x1 = 0.8996 | 7.02 ± 0.14
288.15 K, x1 = 0.9503 | 7.44 ± 0.15
293.15 K, x1 = 0.0979 | 2.3 ± 0.05
293.15 K, x1 = 0.1999 | 2.7 ± 0.05
293.15 K, x1 = 0.2483 | 2.9 ± 0.06
293.15 K, x1 = 0.2962 | 3.12 ± 0.06
293.15 K, x1 = 0.3968 | 3.61 ± 0.07
293.15 K, x1 = 0.5047 | 4.2 ± 0.08
293.15 K, x1 = 0.6015 | 4.78 ± 0.1
293.15 K, x1 = 0.6957 | 5.4 ± 0.11
293.15 K, x1 = 0.7975 | 6.11 ± 0.12
293.15 K, x1 = 0.8996 | 6.9 ± 0.14
293.15 K, x1 = 0.951 | 7.31 ± 0.15
298.15 K, x1 = 0.0975 | 2.3 ± 0.05
298.15 K, x1 = 0.2091 | 2.72 ± 0.05
298.15 K, x1 = 0.2569 | 2.92 ± 0.06
298.15 K, x1 = 0.2955 | 3.08 ± 0.06
298.15 K, x1 = 0.4035 | 3.61 ± 0.07
298.15 K, x1 = 0.5005 | 4.13 ± 0.08
298.15 K, x1 = 0.5944 | 4.67 ± 0.09
298.15 K, x1 = 0.6956 | 5.32 ± 0.11
298.15 K, x1 = 0.8007 | 6.04 ± 0.12
298.15 K, x1 = 0.901 | 6.79 ± 0.14
298.15 K, x1 = 0.9489 | 7.17 ± 0.14
303.15 K, x1 = 0.099 | 2.28 ± 0.05
303.15 K, x1 = 0.2015 | 2.66 ± 0.05
303.15 K, x1 = 0.2491 | 2.86 ± 0.06
303.15 K, x1 = 0.297 | 3.06 ± 0.06
303.15 K, x1 = 0.4001 | 3.56 ± 0.07
303.15 K, x1 = 0.4967 | 4.06 ± 0.08
303.15 K, x1 = 0.596 | 4.63 ± 0.09
303.15 K, x1 = 0.6976 | 5.27 ± 0.11
303.15 K, x1 = 0.7976 | 5.93 ± 0.12
303.15 K, x1 = 0.9012 | 6.69 ± 0.13
303.15 K, x1 = 0.9496 | 7.06 ± 0.14
308.15 K, x1 = 0.0979 | 2.26 ± 0.05
308.15 K, x1 = 0.1997 | 2.63 ± 0.05
308.15 K, x1 = 0.2461 | 2.81 ± 0.06
308.15 K, x1 = 0.2965 | 3.03 ± 0.06
308.15 K, x1 = 0.3969 | 3.49 ± 0.07
308.15 K, x1 = 0.5043 | 4.05 ± 0.08
308.15 K, x1 = 0.6013 | 4.6 ± 0.09
308.15 K, x1 = 0.6972 | 5.19 ± 0.1
308.15 K, x1 = 0.7975 | 5.85 ± 0.12
308.15 K, x1 = 0.8996 | 6.58 ± 0.13
308.15 K, x1 = 0.9503 | 6.96 ± 0.14
318.15 K, x1 = 0.0987 | 2.24 ± 0.05
318.15 K, x1 = 0.2016 | 2.6 ± 0.05
318.15 K, x1 = 0.248 | 2.78 ± 0.06
318.15 K, x1 = 0.2973 | 2.97 ± 0.06
318.15 K, x1 = 0.4 | 3.43 ± 0.07
318.15 K, x1 = 0.502 | 3.94 ± 0.08
318.15 K, x1 = 0.6006 | 4.48 ± 0.09
318.15 K, x1 = 0.6982 | 5.07 ± 0.1
318.15 K, x1 = 0.8053 | 5.75 ± 0.12
318.15 K, x1 = 0.9018 | 6.42 ± 0.13
318.15 K, x1 = 0.9503 | 6.75 ± 0.14
328.15 K, x1 = 0.1007 | 2.23 ± 0.04
328.15 K, x1 = 0.2003 | 2.57 ± 0.05
328.15 K, x1 = 0.2486 | 2.75 ± 0.06
328.15 K, x1 = 0.2973 | 2.95 ± 0.06
328.15 K, x1 = 0.3958 | 3.38 ± 0.07
328.15 K, x1 = 0.496 | 3.86 ± 0.08
328.15 K, x1 = 0.5967 | 4.38 ± 0.09
328.15 K, x1 = 0.6922 | 4.92 ± 0.1
328.15 K, x1 = 0.798 | 5.55 ± 0.11
328.15 K, x1 = 0.8997 | 6.21 ± 0.12
328.15 K, x1 = 0.9487 | 6.53 ± 0.13
